Legend:
Test in all cases: Test C pre-/postemergence greenhouse test
Type in all cases: in vivo
[1] = tested on: windgrass (Apera spica-venti); details: Preemergence, scale 0 to 100
Excerpt: (§1) Seeds of plant species selected from blackgrass (Alopecurus myosuroides), ryegrass, Italian (Lolium multiflorum), wheat, winter (winter wheat, Triticum aestivum), galium (catchweed bedstraw, Galium aparine), corn (Zea mays), crabgrass, large (Digitaria sanguinalis), foxtail, giant (Setaria faberii), johnsongrass (Sorghum halepense), lambsquarters (Chenopodium album), morningglory (Ipomoea coccinea), nutsedge, yellow (Cyperus esculentus), pigweed (Amaranthus retroflexus), ragweed (common ragweed, Ambrosia elatior), soybean (Glycine max), barnyardgrass (Echinochloa crus-galli), oilseed rape (Brassica napus), waterhemp (common waterhemp, Amaranthus rudis), pigweed, palmer (Amaranthus palmeri), kochia (Kochia scoparia), oat, wild (Avena fatua), surinam grass (Brachiaria decumbens), windgrass (Apera spica-venti), poinsettia, wild (Euphorbia heterophylla) and velvetleaf (Abutilon theophrasti) were planted into a silt loam soil and treated preemergence with test chemicals formulated in a non-phytotoxic solvent mixture which included a surfactant.
(§2) At the same time, plants selected from these crop and weed species and also chickweed (common chickweed, Stellaria media), buckwheat, wild (Polygonum convolvulus), mustard, wild (Sinapis arvensis), field poppy (Papaver rhoeas), field violet (Viola arvensis), nightshade (eastern black nightshade, Solanum ptycanthum), speedwell (bird's-eye speedwell, Veronica persica), horseweed (Conyza canadensis), cutleaf geranium (Geranium dissectum), and Canada thistle (Cirsium arvense) were planted in pots containing Redi-Earth® planting medium (Scotts Company, 14111 Scottslawn Road, Marysville, Ohio 43041) comprising spaghnum peat moss, vermiculite, wetting agent and starter nutrients and treated with postemergence applications of test chemicals formulated in the same manner. Plants ranged in height from 2 to 18 cm (1- to 4-leaf stage) for postemergence treatments. Treated plants and controls were maintained in a greenhouse for 13 to 21 d, after which time all species were compared to controls and visually evaluated. Plant response ratings, summarized in Table C-1 (postemergence) and C-2 (preemergence), are based on a scale of 0 to 100 where 0 is no effect and 100 is complete control. A dash (-) response means no test result.

[2] = tested on: morningglory (Ipomoea coccinea); details: Preemergence, scale 0 to 100
Excerpt: as §1, §2

[3] = tested on: velvetleaf (Abutilon theophrasti); details: Preemergence, scale 0 to 100
Excerpt: as §1, §2

kochia (Kochia scoparia) = details: scale 0 to 100
Excerpt: as §1, §2

[4] = tested on: waterhemp (common waterhemp, Amaranthus rudis); details: scale 0 to 100
Excerpt: as §1, §2

oat, wild (Avena fatua) = details: scale 0 to 100
Excerpt: as §1, §2

[5] = tested on: pigweed, palmer (Amaranthus palmeri); details: scale 0 to 100
Excerpt: as §1, §2

corn (Zea mays) = details: scale 0 to 100
Excerpt: as §1, §2

[6] = tested on: ragweed (common ragweed, Ambrosia elatior); details: scale 0 to 100
Excerpt: as §1, §2

soybean (Glycine max) = details: scale 0 to 100
Excerpt: as §1, §2

[7] = tested on: galium (catchweed bedstraw, Galium aparine); details: scale 0 to 100
Excerpt: as §1, §2

[8] = tested on: lambsquarters (Chenopodium album); details: Preemergence, scale 0 to 100
Excerpt: as §1, §2

[9] = tested on: nutsedge, yellow (Cyperus esculentus); details: Preemergence, scale 0 to 100
Excerpt: as §1, §2

[10] = tested on: oilseed rape (Brassica napus); details: Preemergence, scale 0 to 100
Excerpt: as §1, §2

## Cc1ccc2ccc(F)cc2c1-c1c(O)c(Cl)nn(C)c1=O [Cpd. No. 21]
[1]; 31 g ai/ha
  Plant response rating, Windgrass: 75
[1]; 61 g ai/ha
  Plant response rating, Windgrass: 50
[1]; 62 g ai/ha
  Plant response rating, Windgrass: 85
[1]; 125 g ai/ha
  Plant response rating, Windgrass: 98
[2]; 31 g ai/ha
  Plant response rating, Morningglory: 40
[2]; 61 g ai/ha
  Plant response rating, Morningglory: 5
[2]; 62 g ai/ha
  Plant response rating, Morningglory: 80
[2]; 125 g ai/ha
  Plant response rating, Morningglory: 95
[3]; 31 g ai/ha
  Plant response rating, Velvetleaf: 75
[3]; 61 g ai/ha
  Plant response rating, Velvetleaf: 40
[3]; 62 g ai/ha
  Plant response rating, Velvetleaf: 75
[3]; 125 g ai/ha
  Plant response rating, Velvetleaf: 95
Kochia (Kochia scoparia); Postemergence, 16 g ai/ha
  Plant response rating, Kochia: 13
Kochia (Kochia scoparia); Postemergence, 31 g ai/ha
  Plant response rating, Kochia: 18
Kochia (Kochia scoparia); Postemergence, 62 g ai/ha
  Plant response rating, Kochia: 28
Kochia (Kochia scoparia); Postemergence, 125 g ai/ha
  Plant response rating, Kochia: 28
Kochia (Kochia scoparia); Preemergence, 31 g ai/ha
  Plant response rating, Kochia: 20
Kochia (Kochia scoparia); Preemergence, 61 g ai/ha
  Plant response rating, Kochia: 5
Kochia (Kochia scoparia); Preemergence, 62 g ai/ha
  Plant response rating, Kochia: 70
Kochia (Kochia scoparia); Preemergence, 125 g ai/ha
  Plant response rating, Kochia: 90
[4]; Postemergence, 16 g ai/ha
  Plant response rating, Waterhemp: 80
[4]; Postemergence, 31 g ai/ha
  Plant response rating, Waterhemp: 85
[4]; Postemergence, 62 g ai/ha
  Plant response rating, Waterhemp: 98
[4]; Postemergence, 125 g ai/ha
  Plant response rating, Waterhemp: 90
[4]; Preemergence, 31 g ai/ha
  Plant response rating, Waterhemp: 85
[4]; Preemergence, 61 g ai/ha
  Plant response rating, Waterhemp: 80
[4]; Preemergence, 62 g ai/ha
  Plant response rating, Waterhemp: 95
[4]; Preemergence, 125 g ai/ha
  Plant response rating, Waterhemp: 98
oat, wild (Avena fatua); Postemergence, 16 g ai/ha
  Plant response rating, Oat, Wild: 95
oat, wild (Avena fatua); Postemergence, 31 g ai/ha
  Plant response rating, Oat, Wild: 98
oat, wild (Avena fatua); Postemergence, 62 g ai/ha
  Plant response rating, Oat, Wild: 99
oat, wild (Avena fatua); Postemergence, 125 g ai/ha
  Plant response rating, Oat, Wild: 100
oat, wild (Avena fatua); Preemergence, 31 g ai/ha
  Plant response rating, Oat, Wild: 70
oat, wild (Avena fatua); Preemergence, 61 g ai/ha
  Plant response rating, Oat, Wild: 45
oat, wild (Avena fatua); Preemergence, 62 g ai/ha
  Plant response rating, Oat, Wild: 85
oat, wild (Avena fatua); Preemergence, 125 g ai/ha
  Plant response rating, Oat, Wild: 85
[5]; Postemergence, 16 g ai/ha
  Plant response rating, Pigweed, Palmer: 30
[5]; Postemergence, 31 g ai/ha
  Plant response rating, Pigweed, Palmer: 30
[5]; Postemergence, 62 g ai/ha
  Plant response rating, Pigweed, Palmer: 30
[5]; Postemergence, 125 g ai/ha
  Plant response rating, Pigweed, Palmer: 95
[5]; Preemergence, 31 g ai/ha
  Plant response rating, Pigweed, Palmer: 55
[5]; Preemergence, 61 g ai/ha
  Plant response rating, Pigweed, Palmer: 20
[5]; Preemergence, 62 g ai/ha
  Plant response rating, Pigweed, Palmer: 70
[5]; Preemergence, 125 g ai/ha
  Plant response rating, Pigweed, Palmer: 90
Corn (Zea mays); Postemergence, 16 g ai/ha
  Plant response rating, Corn: 0
Corn (Zea mays); Postemergence, 31 g ai/ha
  Plant response rating, Corn: 0
Corn (Zea mays); Postemergence, 62 g ai/ha
  Plant response rating, Corn: 15
Corn (Zea mays); Postemergence, 125 g ai/ha
  Plant response rating, Corn: 18
Corn (Zea mays); Preemergence, 31 g ai/ha
  Plant response rating, Corn: 0
Corn (Zea mays); Preemergence, 61 g ai/ha
  Plant response rating, Corn: 0
Corn (Zea mays); Preemergence, 62 g ai/ha
  Plant response rating, Corn: 5
Corn (Zea mays); Preemergence, 125 g ai/ha
  Plant response rating, Corn: 20
[6]; Postemergence, 16 g ai/ha
  Plant response rating, Ragweed: 90
[6]; Postemergence, 31 g ai/ha
  Plant response rating, Ragweed: 95
[6]; Postemergence, 62 g ai/ha
  Plant response rating, Ragweed: 98
[6]; Postemergence, 125 g ai/ha
  Plant response rating, Ragweed: 98
[6]; Preemergence, 31 g ai/ha
  Plant response rating, Ragweed: 100
[6]; Preemergence, 61 g ai/ha
  Plant response rating, Ragweed: 45
[6]; Preemergence, 62 g ai/ha
  Plant response rating, Ragweed: 98
[6]; Preemergence, 125 g ai/ha
  Plant response rating, Ragweed: 95
Soybean (Glycine max); Postemergence, 16 g ai/ha
  Plant response rating, Soybean: 10
Soybean (Glycine max); Postemergence, 31 g ai/ha
  Plant response rating, Soybean: 13
Soybean (Glycine max); Postemergence, 62 g ai/ha
  Plant response rating, Soybean: 20
Soybean (Glycine max); Postemergence, 125 g ai/ha
  Plant response rating, Soybean: 23
Soybean (Glycine max); Preemergence, 31 g ai/ha
  Plant response rating, Soybean: 0
Soybean (Glycine max); Preemergence, 61 g ai/ha
  Plant response rating, Soybean: 0
Soybean (Glycine max); Preemergence, 62 g ai/ha
  Plant response rating, Soybean: 0
Soybean (Glycine max); Preemergence, 125 g ai/ha
  Plant response rating, Soybean: 0
[7]; Postemergence, 16 g ai/ha
  Plant response rating, Galium: 90
[7]; Postemergence, 31 g ai/ha
  Plant response rating, Galium: 95
[7]; Postemergence, 62 g ai/ha
  Plant response rating, Galium: 98
[7]; Postemergence, 125 g ai/ha
  Plant response rating, Galium: 78
[7]; Preemergence, 31 g ai/ha
  Plant response rating, Galium: 95
[7]; Preemergence, 61 g ai/ha
  Plant response rating, Galium: 90
[7]; Preemergence, 62 g ai/ha
  Plant response rating, Galium: 95
[7]; Preemergence, 125 g ai/ha
  Plant response rating, Galium: 95
[8]; 31 g ai/ha
  Plant response rating, Lambsquarters: 70
[8]; 61 g ai/ha
  Plant response rating, Lambsquarters: 75
[8]; 62 g ai/ha
  Plant response rating, Lambsquarters: 85
[8]; 125 g ai/ha
  Plant response rating, Lambsquarters: 98
[9]; 31 g ai/ha
  Plant response rating, Nutsedge, Yellow: 60
[9]; 61 g ai/ha
  Plant response rating, Nutsedge, Yellow: 30
[9]; 62 g ai/ha
  Plant response rating, Nutsedge, Yellow: 85
[9]; 125 g ai/ha
  Plant response rating, Nutsedge, Yellow: 95
[10]; 31 g ai/ha
  Plant response rating, Oilseed Rape: 85
[10]; 61 g ai/ha
  Plant response rating, Oilseed Rape: 0
[10]; 62 g ai/ha
  Plant response rating, Oilseed Rape: 98
[10]; 125 g ai/ha
  Plant response rating, Oilseed Rape: 100

From patent US12435044B2, “Pyridazinone herbicides and pyridazinone intermediates used to prepare a herbicide” (FMC Corporation, priority 2018, dated 2025)
